Measured values taken from publication PMC6019379, “RecA-like domain 2 of DNA-dependent ATPase A domain, a SWI2/SNF2 protein, mediates conformational integrity and ATP hydrolysis” (Bioscience Reports, 2018).

Tests used:
Type in all cases: binding
[1] = molecular target: T1, ADAAD (Active DNA-dependent ATPase A domain) (Bos taurus, UniProt Q9TTA5, R815H); assay: intrinsic tryptophan fluorescence titration (ex […] nm, em […] nm), one-site fit
T1 construct: gene SMARCAL1; ATPase domain fragment of bovine SMARCAL1 (RecA-like domains 1 and 2), plasmid pCP101 (pET-14b, NdeI/XhoI), E. coli BL21(DE3), Ni-NTA then DEAE-sepharose; tag removal not mentioned
T1 sequence (Q9TTA5 221-940 R815H limits assumed): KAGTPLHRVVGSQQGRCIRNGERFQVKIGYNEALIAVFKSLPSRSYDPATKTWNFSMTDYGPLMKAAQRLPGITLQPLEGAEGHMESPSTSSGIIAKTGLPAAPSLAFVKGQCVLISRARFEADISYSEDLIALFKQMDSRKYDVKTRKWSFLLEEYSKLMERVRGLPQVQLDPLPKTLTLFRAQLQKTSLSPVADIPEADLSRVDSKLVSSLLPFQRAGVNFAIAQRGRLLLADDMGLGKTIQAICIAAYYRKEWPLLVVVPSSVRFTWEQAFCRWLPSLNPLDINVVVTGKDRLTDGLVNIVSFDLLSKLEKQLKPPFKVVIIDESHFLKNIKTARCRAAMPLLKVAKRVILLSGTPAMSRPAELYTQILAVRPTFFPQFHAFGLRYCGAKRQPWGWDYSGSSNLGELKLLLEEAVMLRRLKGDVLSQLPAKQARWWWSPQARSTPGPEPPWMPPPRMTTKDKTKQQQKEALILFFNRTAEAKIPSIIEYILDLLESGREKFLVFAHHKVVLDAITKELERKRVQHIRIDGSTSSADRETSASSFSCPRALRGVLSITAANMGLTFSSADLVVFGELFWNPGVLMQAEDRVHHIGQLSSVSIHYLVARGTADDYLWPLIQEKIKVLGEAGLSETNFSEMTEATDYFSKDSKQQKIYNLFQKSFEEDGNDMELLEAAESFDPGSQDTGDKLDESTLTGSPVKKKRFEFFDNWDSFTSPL

[2] = molecular target: T2, ADAAD (Active DNA-dependent ATPase A domain) (Bos taurus, UniProt Q9TTA5, D811H); assay: as above
T2 construct: gene SMARCAL1; ATPase domain fragment of bovine SMARCAL1 (RecA-like domains 1 and 2), plasmid pCP101 (pET-14b, NdeI/XhoI), E. coli BL21(DE3), Ni-NTA then DEAE-sepharose; tag removal not mentioned
T2 sequence (Q9TTA5 221-940 D811H limits assumed): as the sequence (Q9TTA5 221-940 R815H limits assumed) above, with D591H, H595R counted along it

[3] = molecular target: T3, ADAAD (Active DNA-dependent ATPase A domain) (Bos taurus, UniProt Q9TTA5, F727W); assay: as above
T3 construct: gene SMARCAL1; ATPase domain fragment of bovine SMARCAL1 (RecA-like domains 1 and 2), plasmid pCP101 (pET-14b, NdeI/XhoI), E. coli BL21(DE3), Ni-NTA then DEAE-sepharose; tag removal not mentioned
T3 sequence (Q9TTA5 221-940 F727W limits assumed): as the sequence (Q9TTA5 221-940 R815H limits assumed) above, with F507W, H595R counted along it

[4] = molecular target: T4, ADAAD (Active DNA-dependent ATPase A domain) (Bos taurus, UniProt Q9TTA5, R815A); assay: as above
T4 construct: gene SMARCAL1; ATPase domain fragment of bovine SMARCAL1 (RecA-like domains 1 and 2), plasmid pCP101 (pET-14b, NdeI/XhoI), E. coli BL21(DE3), Ni-NTA then DEAE-sepharose; tag removal not mentioned
T4 sequence (Q9TTA5 221-940 R815A limits assumed): as the sequence (Q9TTA5 221-940 R815H limits assumed) above, with H595A counted along it

[5] = molecular target: T5, ADAAD (Active DNA-dependent ATPase A domain) (Bos taurus, UniProt Q9TTA5, D811H/H549D); assay: as above
T5 construct: gene SMARCAL1; ATPase domain fragment of bovine SMARCAL1 (RecA-like domains 1 and 2), plasmid pCP101 (pET-14b, NdeI/XhoI), E. coli BL21(DE3), Ni-NTA then DEAE-sepharose; tag removal not mentioned
T5 sequence (Q9TTA5 221-940 H549D/D811H limits assumed): as the sequence (Q9TTA5 221-940 R815H limits assumed) above, with H329D, D591H, H595R counted along it

[6] = molecular target: T6, ADAAD (Active DNA-dependent ATPase A domain) (Bos taurus, UniProt Q9TTA5, T780A); assay: as above
T6 construct: gene SMARCAL1; ATPase domain fragment of bovine SMARCAL1 (RecA-like domains 1 and 2), plasmid pCP101 (pET-14b, NdeI/XhoI), E. coli BL21(DE3), Ni-NTA then DEAE-sepharose; tag removal not mentioned
T6 sequence (Q9TTA5 221-940 T780A limits assumed): as the sequence (Q9TTA5 221-940 R815H limits assumed) above, with T560A, H595R counted along it

[7] = molecular target: T7, ADAAD (Active DNA-dependent ATPase A domain) (Bos taurus, UniProt Q9TTA5, F727A/R812A); assay: as above
T7 construct: gene SMARCAL1; ATPase domain fragment of bovine SMARCAL1 (RecA-like domains 1 and 2), plasmid pCP101 (pET-14b, NdeI/XhoI), E. coli BL21(DE3), Ni-NTA then DEAE-sepharose; tag removal not mentioned
T7 sequence (Q9TTA5 221-940 F727A/R812A limits assumed): as the sequence (Q9TTA5 221-940 R815H limits assumed) above, with F507A, R592A, H595R counted along it

[8] = molecular target: T8, ADAAD (Active DNA-dependent ATPase A domain) (Bos taurus, UniProt Q9TTA5); assay: intrinsic tryptophan fluorescence titration (ex […] nm, em […] nm); conditions: representative spectra only
T8 construct: gene SMARCAL1; ATPase domain fragment of bovine SMARCAL1 (RecA-like domains 1 and 2), plasmid pCP101 (pET-14b, NdeI/XhoI), E. coli BL21(DE3), Ni-NTA then DEAE-sepharose; tag removal not mentioned
T8 sequence (Q9TTA5 221-940 limits assumed): as the sequence (Q9TTA5 221-940 R815H limits assumed) above, with H595R counted along it

[9] = molecular target: T9, ADAAD (Active DNA-dependent ATPase A domain) (Bos taurus, UniProt Q9TTA5, F727A); assay: intrinsic tryptophan fluorescence titration (ex […] nm, em […] nm), one-site fit
T9 construct: gene SMARCAL1; ATPase domain fragment of bovine SMARCAL1 (RecA-like domains 1 and 2), plasmid pCP101 (pET-14b, NdeI/XhoI), E. coli BL21(DE3), Ni-NTA then DEAE-sepharose; tag removal not mentioned
T9 sequence (Q9TTA5 221-940 F727A limits assumed): as the sequence (Q9TTA5 221-940 R815H limits assumed) above, with F507A, H595R counted along it

[10] = molecular target: T10, ADAAD (Active DNA-dependent ATPase A domain) (Bos taurus, UniProt Q9TTA5, H814A); assay: as above
T10 construct: gene SMARCAL1; ATPase domain fragment of bovine SMARCAL1 (RecA-like domains 1 and 2), plasmid pCP101 (pET-14b, NdeI/XhoI), E. coli BL21(DE3), Ni-NTA then DEAE-sepharose; tag removal not mentioned
T10 sequence (Q9TTA5 221-940 H814A limits assumed): as the sequence (Q9TTA5 221-940 R815H limits assumed) above, with H594A, H595R counted along it

[11] = molecular target: T11, ADAAD (Active DNA-dependent ATPase A domain) (Bos taurus, UniProt Q9TTA5, R815K); assay: as above
T11 construct: gene SMARCAL1; ATPase domain fragment of bovine SMARCAL1 (RecA-like domains 1 and 2), plasmid pCP101 (pET-14b, NdeI/XhoI), E. coli BL21(DE3), Ni-NTA then DEAE-sepharose; tag removal not mentioned
T11 sequence (Q9TTA5 221-940 R815K limits assumed): as the sequence (Q9TTA5 221-940 R815H limits assumed) above, with H595K counted along it

[12] = molecular target: T12, ADAAD (Active DNA-dependent ATPase A domain) (Bos taurus, UniProt Q9TTA5, R812A); assay: as above
T12 construct: gene SMARCAL1; ATPase domain fragment of bovine SMARCAL1 (RecA-like domains 1 and 2), plasmid pCP101 (pET-14b, NdeI/XhoI), E. coli BL21(DE3), Ni-NTA then DEAE-sepharose; tag removal not mentioned
T12 sequence (Q9TTA5 221-940 R812A limits assumed): as the sequence (Q9TTA5 221-940 R815H limits assumed) above, with R592A, H595R counted along it

[13] = molecular target: T13, ADAAD (Active DNA-dependent ATPase A domain) (Bos taurus, UniProt Q9TTA5, S778A); assay: as above
T13 construct: gene SMARCAL1; ATPase domain fragment of bovine SMARCAL1 (RecA-like domains 1 and 2), plasmid pCP101 (pET-14b, NdeI/XhoI), E. coli BL21(DE3), Ni-NTA then DEAE-sepharose; tag removal not mentioned
T13 sequence (Q9TTA5 221-940 S778A limits assumed): as the sequence (Q9TTA5 221-940 R815H limits assumed) above, with S558A, H595R counted along it

## Nc1ncnc2c1ncn2[C@@H]1O[C@H](COP(=O)(O)OP(=O)(O)OP(=O)(O)O)[C@@H](O)[C@H]1O [ATP]
[1]
  Kd: 1300 nM
[2]
  Kd: 3200 nM
[3]
  Kd: 1000 nM
[4]
  Kd: 1200 nM
[5]
  Kd: 2800 nM
[6]
  Kd: 1000 nM
[7]
  Kd: 1700 nM
[8]
  intrinsic tryptophan fluorescence titration (ex 295 nm, em 340 nm): Representative fluorescence spectra of ADAAD titrated with (A). ATP; (B) DNA.
[9]
  Kd: 1600 nM
[10]
  Kd: 1600 nM
[11]
  Kd: 1200 nM
[12]
  Kd: 1600 nM
[13]
  Kd: 1900 nM
